# From patent US9012655B2, “Antimicrobial/adjuvant compounds and methods” (Denouamed, Inc., priority 2011, dated 2015)
# Tests used:
# AcpS enzyme = AcpS enzyme (Escherichia coli, UniProt P24224); experiment: Measurement of AcpS inhibition ([3H]acetyl-CoA incorporation into apo-ACP); assay type: biochemical; conditions: % activity vs blank-subtracted counts; for activity at 50 µM / % AcpS activity at 50 uM: test compound 50 uM; for remaining activity at 500 µM / % AcpS activity @ 500 uM: test compound 500 uM
# Protocol: [^3H]Acetyl-CoA was mixed as 1 volume of Perkin Elmer NET290 radiolabeled stock (e.g. 0.1 mCi/ml, 3.7 Ci/mmol in Na-acetate, pH 4.5-5.0=27 μM) with 1.2 volumes of 1 mM unlabelled acetyl-CoA (Sigma). Trichloroacetic acid was prepared as a 10% w/v solution. Bovine serum albumin was prepared as a 25 mg/ml solution in water. DTT was prepared as a 50 mM solution in water.
# • 1. A standard reaction contained the following in a total volume of 10 μl:
# • 2. Tubes were incubated at RT. [^3H]acetyl-CoA was added last to start the reaction. To stop the reaction, 2 μl was removed to a 1.5-ml microfuge tube containing 800 μl cold 10% TCA. Up to four time points were collected for each reaction, e.g. at 5 min, 10 min, 30 min, and 60 min. • 3. 20 μl of 25 mg/ml BSA was added to each tube, mixed and incubated on ice for 10 min, then centrifuged at 12,000 g for 5 min to form a pellet. Supernatant was removed using P1000. • 4. Each pellet was washed twice with 800 μl of cold 10% TCA each time, then centrifuged at 12,000 g for 5 min after each wash. The supernatant was discarded. Each pellet was resuspended in 50 μl of formic acid. The suspension was transferred to a scintillation vial and radioactivity was measured in 2 ml of liquid scintillation cocktail.
# The random (stochastic) error in scintillation counting is proportional to the square root of the counts (not dpm) accumulated in the counting period; i.e. 10% for 100, 3.3% for 1,000, 1% for 10,000, etc. Provided radioactive counts (dpm) are in the thousands, the assay provides useful data. Results are reported in terms of % activity with respect to the blank-subtracted counts for working substrate. A % activity of less than about 40% is indicative of AcpS enzyme inhibition by the test compound at that concentration.
# [1] = system: Methicillin-Resistant Staph. aureus (MRSA); experiment: MIC, NCCLS M7-A6 broth microdilution, MRSA; assay type: cell-based; conditions: 16 to 20 h, 35 degrees Celsius; for MIC: Staphylococcus aureus, MRSA
# Protocol: (§1) Susceptibilities to the compounds were determined using the National Committee for Clinical Laboratory Standards (NCCLS) M7-A6 broth microdilution method. Cation-adjusted Mueller-Hinton broth (Ca^2+, 25 μg/mL; Mg^2+, 12.5 μg/mL) microdilution panels were prepared to contain antimicrobial doubling dilution concentrations of an appropriate range. DMSO (dimethylsulfoxide) controls were incorporated into the panel to mimic the quantity of DMSO used in dissolving some of the compounds at the higher concentrations. Each final panel well volume was 100 μL with a bacterial inoculum of 5×10^5 CFU (colony forming units)/mL of the relevant bacterium. Panels were read following 16 to 20 h of incubation at 35 degrees Celsius in ambient air. The MIC (minimum inhibitory concentration) was defined as the lowest concentration of antimicrobial inhibiting visible growth.
# E. coli D22 = experiment: MIC, NCCLS M7-A6 broth microdilution, E. coli D22; assay type: cell-based; conditions: 35 degrees Celsius; for MIC: Escherichia coli, D22, 16 to 20 h; for MIC E coli D22: 16 to 20 h
# Protocol: as §1
# AcpS enzyme, sequence (P24224 whole entry): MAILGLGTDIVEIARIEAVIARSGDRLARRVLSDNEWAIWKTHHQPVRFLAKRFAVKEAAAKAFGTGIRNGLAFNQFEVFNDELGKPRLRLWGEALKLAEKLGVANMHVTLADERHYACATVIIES
Structure (SMILES),activity at 50 µM (AcpS enzyme) [%],remaining activity at 500 µM (AcpS enzyme) [%],MIC [1] [µM],MIC (E. coli D22) [µM],% AcpS activity at 50 uM (AcpS enzyme) [%],% AcpS activity @ 500 uM (AcpS enzyme) [%],MIC MRSA [1] [µM],MIC E coli D22 (E. coli D22) [µM]
"Cc1ccc(-c2cc(-c3nnn[nH]3)sc2-c2ccc(C)c(C)c2)cc1C [DNM0509, 5-(4,5-Bis(3,4-dimethylphenyl)thiophen-2-yl)-1H-tetrazole]",31.1,0.2,15,> 125,,,,
"Cc1ccc(-c2sc(-c3nnn[nH]3)cc2-c2ccc(Cl)cc2)c2ccccc12 [DNM0572, 5-(4-(4-Chlorophenyl)-5-(4-methylnaphthalen-1-yl)thiophen-2-yl)-1H-tetrazole]",4.41,0.51,8,> 125,,,,
CN(C)c1ccc(Cl)cc1-c1cc(-c2nn[nH]n2)cc(-c2cc(Cl)ccc2N(C)C)c1 [DNM0510],,,,,8.4,0.12,4,>125
"Cc1ccc(-c2cc(-c3nnn[nH]3)sc2Cc2ccc(Cl)cc2)c2ccccc12 [DNM0577, 5-(5-(4-Chlorobenzyl)-4-(4-methylnaphthalen-1-yl)thiophen-2-yl)-1H-tetrazole]",5.54,0.4,8,> 125,,,,
"CC(C)c1ccccc1-c1cc(-c2nnn[nH]2)sc1-c1ccccc1C(C)C [DNM0534, 5-(4,5-Bis(2-isopropylphenyl)thiophen-2-yl)-1H-tetrazole]",34,0,8,> 125,,,,
"Fc1ccc(-c2cc(-c3nnn[nH]3)sc2Cc2ccc(Cl)cc2)c2ccccc12 [DNM0587, 5-(5-(4-Chlorobenzyl)-4-(4-fluoronaphthalen-1-yl)thiophen-2-yl)-1H-tetrazole]",2.13,0,8,,,,,
"Cc1ccc(-c2cc(-c3nnn[nH]3)sc2-c2ccc(C)cc2Cl)c(Cl)c1 [DNM0563, 5-(4,5-Bis(2-chloro-4-methylphenyl)thiophen-2-yl)-1H-tetrazole]",15.1,0.56,8,125,,,,
Cc1ccccc1-c1cc(-c2nn[nH]n2)cc(-c2ccccc2C)c1 [DNM0529],,,,,91.56,0.16,30,>125
CC(C)c1ccccc1-c1cc(-c2nn[nH]n2)cc(-c2ccccc2C(C)C)c1 [DNM0532],,,,,30.66,0.22,60,>125
Clc1cccc(-c2ccccc2-c2cc(-c3nn[nH]n3)cc(-c3ccccc3-c3cccc(Cl)c3)c2)c1 [DNM0493],,,,,25.28,2.7,4,>125
"Cc1ccc(C2(c3cccc(Cl)c3)C=C(c3nnn[nH]3)SC2)c2ccccc12 (centres unmarked) [DNM0575, 5-(4-(5-Chlorophenyl)-4-(4-methylnaphthalen-1-yl)thiophen-2-yl)-1H-tetrazole]",5.86,0.23,8,> 125,,,,
c1ccc(-c2ccccc2-c2cc(-c3nn[nH]n3)cc(-c3ccccc3-c3ccccc3)c2)cc1 [DNM0464],,,,,9.03,0.28,1,>125
"COc1c(C)cc(-c2cc(-c3nnn[nH]3)sc2-c2cc(C)c(OC)c(C)c2)cc1C [DNM0564, 5-(4,5-Bis(4-methoxy-3,5-dimethylphenyl)thiophen-2-yl)-1H-tetrazole]",47.6,0.75,15,> 125,,,,
"Fc1ccc(-c2cc(-c3nn[nH]n3)cc(-c3ccc(F)c4ccccc34)c2)c2ccccc12 [DNM0539, 5-(3,5-Bis(4-fluoronaphthalen-1-yl)phenyl)-2H-tetrazole]",,39.4,8,> 125,,,,
"Cc1ccc(-c2cc(-c3nn[nH]n3)cc(-c3ccc(C)c4ccccc34)c2)c2ccccc12 [DNM0461, 5-(3,5-Bis(4-methylnaphthalen-1-yl)phenyl)-2H-tetrazole]",13.4,0.85,1,> 125,,,,
"COc1ccc(-c2cc(-c3nnn[nH]3)sc2-c2ccc(OC)c(Cl)c2)cc1Cl [DNM0565, 5-(4,5-Bis(3-chloro-4-methoxyphenyl)thiophen-2-yl)-1H-tetrazole]",22.9,0.11,15,> 125,,,,
Cc1ccc(-c2cc(-c3nn[nH]n3)cc(-c3ccc(C)cc3-c3ccccc3)c2)c(-c2ccccc2)c1 [DNM0516],,,,,32.01,5,2,>125
c1ccc(C2CC2)c(-c2cc(-c3nnn[nH]3)sc2-c2ccccc2C2CC2)c1 [DNM0570],,,,,33.7,0.19,15,125
"FC(F)(F)Oc1ccccc1-c1cc(-c2nnn[nH]2)sc1-c1ccccc1OC(F)(F)F [DNM0550, 5-(4,5-Bis(2-(trifluoromethoxy)phenyl)thiophen-2-yl)-1H-tetrazole]",47.8,0.39,30,> 125,,,,
"c1ccc(Oc2ccccc2-c2cc(-c3nnn[nH]3)sc2-c2ccccc2Oc2ccccc2)cc1 [DNM0536, 5-(4,5-Bis(2-phenoxyphenyl)thiophen-2-yl)-1H-tetrazole]",8.25,0.2,8,125,,,,
Clc1ccc(-c2cc(-c3nn[nH]n3)cc(-c3ccccc3-c3ccccc3)c2)cc1 [DNM0479],,,,,12.79,0.1,2,>125
"Clc1ccc(-c2cc(-c3ccc(Cl)cc3)cc(-c3nn[nH]n3)c2)cc1 [DNM0470, 5-(3,5-Bis(4-chlorophenyl)phenyl)-2H-tetrazole]",,27.7,4,125,,,,
"c1ccc2c(c1)oc1c(-c3cc(-c4nnn[nH]4)sc3-c3cccc4c3oc3ccccc34)cccc12 [DNM0542, 5-(4,5-Bis(dibenzo[b,d]furan-4-yl)thiophen-2-yl)-1H-tetrazole]",9.58,0.7,2,> 125,,,,
"Clc1ccc(Cc2sc(-c3nnn[nH]3)cc2-c2ccccc2-c2ccccc2)cc1 [DNM0588, 5-(4-(Biphenyl-2-yl)-5-(4-chlorobenzyl)thiophen-2-yl)-1H-tetrazole]",2.67,0,8,,,,,
